Structures can show the parent of a compound that is named as a salt.

Assay [1] has as its system HCT116. The assay can be described thus: AC50 cell viability (CellTiter-Glo); higher = less potent. To be noted: 48 h. Background: ATP-based viability assays read luminescence as a measure of living cells.
Assay [2] has as its system HCT116. Briefly: efficacy (fitted maximal change in viability relative to DMSO control); higher = less cytotoxic (negative = loss of viability). To be noted: 48 h.
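For AC50 cell viability (CellTiter-Glo) in this document: HCT116 colorectal carcinoma cells screened at five concentrations per compound, luminescent viability scaled between DMSO wells and empty wells on each plate, curves fitted per compound.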
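For efficacy (fitted maximal change in viability relative to DMSO control) in this document: Luminescence-based viability readout, five doses per compound, normalized against on-plate DMSO and empty-well controls, followed by dose-response curve fitting for every drug.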

Molecule `CC/1=C(\O)C(=O)\C=C2/C1=C\C=C3/[C@@]2(C)CC[C@@]4(C)[C@@H]5C[C@@](C)(CC[C@]5(C)CC[C@]34C)C(O)=O` [Tripterin] gave an AC50 cell viability in the assay with HCT116 [1] of 3.32 µM. Also, the efficacy with HCT116 [2] was -98.9%.
Take `CC(C)[C@]12O[C@H]1[C@@H]3O[C@@]34[C@@]5(C)CC\C6=C(COC6=O)/[C@@H]5C[C@@H]7O[C@]47[C@@H]2O` [Triptolide]: the AC50 cell viability with HCT116 [1] amounted to 0.0235 µM. Moreover, the efficacy in the assay on HCT116 [2] was -52.7%.
Consider `CC(C)[C@]12O[C@H]1[C@@H]3O[C@@]34[C@@]5(C)CC\C6=C(COC6=O)/[C@@H]5C[C@@H]7O[C@]47C2=O` [Triptonide], for which, in the assay with HCT116 [1], the AC50 cell viability stood at 0.0295 µM. In addition, in the assay on HCT116 [2], the efficacy is -59.2%.
For `Cc1c(C)c2c(c(C)c1O)CCC(C)(COc1ccc(CC3SC(=O)NC3=O)cc1)O2` (stereo not drawn) [Troglitazone], in the assay with HCT116 [1], the AC50 cell viability turned out to be 18.6 µM. Besides, in the assay with HCT116 [2], the efficacy is -55.1%.
For `CN1CCc2c(c3ccccc3n2Cc2ccc(C(=O)NO)cc2)C1` [Tubastatin A] the same measures were 10.5 µM and -93.8%.
On to `CC1=C(OC2=CC3=NC=N[N]3C=C2)C=CC(=C1)NC4=NC=NC5=C4C=C(N\C6=N\C(C)(C)CO6)C=C5` [Tucatinib], for which the AC50 cell viability in the assay on HCT116 [1] amounted to 20.9 µM. For the same molecule, the efficacy with HCT116 [2] is -71.1%.
On the same counts, the results for `C=C1[C@H](OC(=O)/C=C(\C)CC)C[C@@H](C(C)C)[C@@H]2[C@H]([C@@H](C)OC(C)=O)C(=O)C[C@@H]12` [Tussilagone] are 20.9 µM and -67.9%.
For `CN(C)CCN1C(=O)c2cccc3cc(NC(N)=O)cc(c23)C1=O` [UNBS-5162] the same measures were 4.68 µM and -75%.
In the assay with HCT116 [1], `CCCCNc1ncc2c(-c3ccc(CN4CCN(C)CC4)cc3)cn([C@H]3CC[C@H](O)CC3)c2n1` [UNC2025 (hydrochloride)] gave an AC50 cell viability of 1.66 µM. Besides, the efficacy in the assay on HCT116 [2] is -93.7%.
In the assay on HCT116 [1], `CCCCNc1ncc(-c2ccc(CN3CCOCC3)cn2)c(N[C@H]2CC[C@H](O)CC2)n1` [UNC2250] returned an AC50 cell viability of 3.62 µM. In addition, in the assay with HCT116 [2], the efficacy is -51.5%.
Take `CCCCNc1ncc2c(-c3ccc(F)cc3)nn(C[C@H]3CC[C@H](N)CC3)c2n1` [UNC-569]: the AC50 cell viability with HCT116 [1] worked out at 7.23 µM. The efficacy with HCT116 [2] is -83.5%.
Take `COc1cc2c(NC3CCN(CC4CCCCC4)CC3)nc(N3CCCN(C(C)C)CC3)nc2cc1OCCCN1CCCCC1` [UNC-0631]: in the assay on HCT116 [1], the AC50 cell viability amounted to 7.42 µM. Besides, the efficacy in the assay on HCT116 [2] is -106%.
For the molecule `COc1cc2c(NC3CCN(C(C)C)CC3)nc(C3CCCCC3)nc2cc1OCCCN1CCCC1` [UNC-0638], in the assay on HCT116 [1], the AC50 cell viability stood at 8.33 µM. In addition, the efficacy in the assay on HCT116 [2] was -94.9%.
`COc1cc2c(NC3CCN(C4CCCCC4)CC3)nc(N3CCCN(C(C)C)CC3)nc2cc1OCCCN1CCCCC1` [UNC-0646] gave an AC50 cell viability in the assay on HCT116 [1] of 2.95 µM. Besides, in the assay on HCT116 [2], the efficacy is -102%.
Turning to `CCCCNc1ncc2c(-c3ccc(CN4CCN(C)CC4)cc3)cn(C3CCC(O)CC3)c2n1` (stereo not drawn) [UNC-2025], in the assay with HCT116 [1], the AC50 cell viability amounted to 1.66 µM. Further, in the assay with HCT116 [2], the efficacy is -74.3%.
Consider `CC(C)Nc1cc(-c2c[nH]c(C(=O)N[C@H](CO)c3cccc(Cl)c3)c2)c(Cl)cn1` [Ulixertinib], for which the AC50 cell viability in the assay on HCT116 [1] was 1.86 µM. In addition, the efficacy in the assay with HCT116 [2] was -114%.
In the assay with HCT116 [1], `CC(C)OC1=C(F)C=C(C=C1)C2=N[N]([C@@H](C)C/3=C(C4=CC(=CC=C4)F)/C(=O)C5=CC(=CC=C5O3)F)C6=C2C(=NC=N6)N` [Umbralisib] had an AC50 cell viability of 14.8 µM. Further, in the assay with HCT116 [2], the efficacy was -35.3%.
For `CC[C@]1(O)C[C@H]2CN(CCC3=C([NH]C4=C3C=CC=C4)[C@@](C2)(C(=O)OC)C5=C(OC)C=C6N(C)[C@H]7[C@](O)([C@H](OC(C)=O)[C@]8(CC)\C=C/CN9CC[C@]7([C@H]89)C6=C5)C(=O)OC)C1` [VINBLASTINE SULFATE] the same measures were 0.372 µM and -53.2%.
With `C/C(=N\Nc1nnc2c(n1)[nH]c1c(C)cccc12)c1ccccn1` [VLX-600], in the assay on HCT116 [1], the AC50 cell viability amounted to 0.742 µM. Moreover, the efficacy in the assay with HCT116 [2] is -87.1%.
For `C=CC(=O)N1CC/C(=C\c2ccc(F)c([N+](=O)[O-])c2)C(=O)/C(=C/c2ccc(F)c([N+](=O)[O-])c2)C1` [VLX-1570] the same measures were 0.295 µM and -81.4%.
`CC(C)(O)CNc1ncc(-c2ccnc(Nc3ccncc3)n2)c(CC2CC2)n1` [VPS34 Inhibitor 1 (Compound 19, PIK-III analogue)] yielded an AC50 cell viability with HCT116 [1] of 13.2 µM. The efficacy in the assay with HCT116 [2] is -109%.
Molecule `CCCCC(=O)OCC(=O)[C@]1(O)Cc2c(O)c3c(c(O)c2[C@@H](O[C@H]2C[C@H](NC(=O)C(F)(F)F)[C@H](O)[C@H](C)O2)C1)C(=O)c1c(OC)cccc1C3=O` [Valrubicin] returned an AC50 cell viability in the assay with HCT116 [1] of 1.86 µM. The efficacy with HCT116 [2] was -88.9%.
As to `C/C=C/C[C@@H](C)C(=O)[C@H]1C(=O)N[C@@H](C(C)C)C(=O)N(C)CC(=O)N(C)[C@@H](CC(C)C)C(=O)N[C@@H](C(C)C)C(=O)N(C)[C@@H](CC(C)C)C(=O)N[C@@H](C)C(=O)N[C@H](C)C(=O)N(C)[C@@H](CC(C)C)C(=O)N(C)[C@@H](CC(C)C)C(=O)N(C)[C@@H](C(C)C)C(=O)N1C` [Valspodar], in the assay with HCT116 [1], the AC50 cell viability was 8.11 µM. Also, the efficacy in the assay with HCT116 [2] is -53.6%.
On to `COc1cc2c(Nc3ccc(Br)cc3F)ncnc2cc1OCC1CCN(C)CC1` [Vandetanib], for which the AC50 cell viability in the assay on HCT116 [1] came out at 14.8 µM. Also, in the assay on HCT116 [2], the efficacy was -108%.
On the same counts, the results for `Fc1ccc(C(OCCN2CCN(CCCc3ccccc3)CC2)c2ccc(F)cc2)cc1` [Vanoxeamine] are 11.8 µM and -96.8%.
In the assay with HCT116 [1], `C[C@@H]\1COC(=N1)\NC2=CC3=C(C=C2)N=CN=C3NC4=CC(=C(OCC5=NC=CS5)C=C4)Cl` [Varlitinib tosylate] gave an AC50 cell viability of 16.6 µM. The efficacy in the assay on HCT116 [2] was -87.5%.
Regarding `O=C(/C=C\n1cnc(-c2cc(C(F)(F)F)cc(C(F)(F)F)c2)n1)NNc1ccccn1` [Verdinexor], in the assay with HCT116 [1], the AC50 cell viability was 0.59 µM. Besides, the efficacy with HCT116 [2] was -83.9%.
For `COC1=CC(=CC=C1)C2=CC=C(NC(=O)/C3=C(/CCC3)C(O)=O)C(=C2)F` [Vidofludimus] the same measures were 5.25 µM and -50.2%.
Turning to `CC[C@]1(O)C[C@H]2CN(CCC3=C([NH]C4=C3C=CC=C4)[C@@](C2)(C(=O)OC)C5=CC6=C(C=C5OC)N(C=O)[C@H]7[C@](O)([C@H](OC(C)=O)[C@]8(CC)\C=C/CN9CC[C@]67[C@H]89)C(=O)OC)C1` [Vincristine sulfate], in the assay with HCT116 [1], the AC50 cell viability is 0.372 µM. For the same molecule, the efficacy in the assay on HCT116 [2] was -60.7%.
With `CC[C@]12\C=C/CN3CC[C@]4([C@@H](N(C)C5=C4C=C(C(=C5)OC)[C@]6(CC7C[C@H](CN(C7)CC8=C6[NH]C9=C8C=CC=C9)C(C)(F)F)C(=O)OC)[C@](O)([C@@H]1OC(C)=O)C(=O)OC)[C@H]23` (stereo partly drawn) [Vinflunine (Tartrate)], in the assay with HCT116 [1], the AC50 cell viability was 0.209 µM. The efficacy in the assay on HCT116 [2] is -67.8%.
On to `CC[C@]12\C=C/CN3CC[C@]4([C@@H](N(C)C5=CC(=C(C=C45)[C@]6(C[C@H]7C[C@H](CN(C7)CC8=C6[NH]C9=C8C=CC=C9)C(C)(F)F)C(=O)OC)OC)[C@](O)([C@@H]1OC(C)=O)C(=O)OC)[C@H]23` [Vinflunine], for which the AC50 cell viability with HCT116 [1] turned out to be 0.0986 µM. Further, in the assay with HCT116 [2], the efficacy is -64.1%.
On to `CCC1=C[C@@H]2CN(C1)Cc1c([nH]c3ccccc13)[C@@](C(=O)OC)(c1cc3c(cc1OC)N(C)[C@H]1[C@@](O)(C(=O)OC)[C@H](OC(C)=O)[C@]4(CC)C=CCN5CC[C@]31[C@@H]54)C2` [Vinorelbine (ditartrate)], for which, in the assay with HCT116 [1], the AC50 cell viability came to 0.129 µM. The efficacy in the assay on HCT116 [2] was -60.3%.
Take `CNC(=O)c1cccc(-c2ccc3c(N4CCOC[C@@H]4C)nc(N4CCOC[C@@H]4C)nc3n2)c1` [Vistusertib]: in the assay on HCT116 [1], the AC50 cell viability was 0.417 µM. The efficacy in the assay with HCT116 [2] is -31.3%.
In the assay with HCT116 [1], `CC[C@@H]1C(=O)N(C)c2cnc(Nc3ccc(C(=O)NC4CCC(N5CCN(CC6CC6)CC5)CC4)cc3OC)nc2N1C(C)C` (stereo partly drawn) [Volasertib] yielded an AC50 cell viability of 0.0661 µM. Besides, the efficacy with HCT116 [2] was -89.8%.
In the assay with HCT116 [1], `CN1CC[C@H]([C@@H]1CO)C2=C3OC(=C/C(=O)C3=C(O)C=C2O)\C4=C(Cl)C=C(C=C4)C(F)(F)F` [Voruciclib] registered an AC50 cell viability of 7.42 µM. Moreover, the efficacy in the assay on HCT116 [2] is -83.8%.
Take `CN[C@H]1CN(C[C@@H]1OC)C2=NC3=C(C=C2)C(=O)C(=C\N3C4=NC=CS4)/C(O)=O` [Vosaroxin]: the AC50 cell viability in the assay with HCT116 [1] stood at 1.91 µM. In addition, in the assay with HCT116 [2], the efficacy is -59.8%.
As to `CCN1C(=O)\C(=C/C2=C(C)N=C(N)N=C12)C3=CC=N[NH]3` [Voxtalisib], in the assay on HCT116 [1], the AC50 cell viability turned out to be 5.25 µM. In addition, the efficacy in the assay with HCT116 [2] is -60.4%.
Consider `c1cncc(CN2CCC(n3ncc4c(N5CCOCC5)nc(-c5ccc6[nH]ccc6c5)nc43)CC2)c1` [WAY-600], for which the AC50 cell viability in the assay with HCT116 [1] was 5.9 µM. Moreover, the efficacy with HCT116 [2] is -78.7%.
As for `Cc1ccc(-c2nn(C(C)(C)CNC(=O)c3ccncc3)c3ncnc(N)c23)cc1` [WEHI-345], the AC50 cell viability in the assay with HCT116 [1] worked out at 6.61 µM. Further, the efficacy in the assay with HCT116 [2] is -53%.
In turn, `COc1cc2ncnc(Nc3ccc(O)c(Br)c3)c2cc1OC` [WHI-P154] returned an AC50 cell viability in the assay on HCT116 [1] of 14.8 µM. The efficacy with HCT116 [2] is -72.5%.
On the same counts, the results for `CC(C)(C)NC(=O)c1cncn1C1CCN(c2ccc(-c3nnc(C(F)(F)F)o3)cn2)CC1` [WNK-463] are 3.72 µM and -49.1%.
In the assay with HCT116 [1], `CN1CCN(Cc2ccc(NC(=O)Nc3ccc(Oc4cc(NC(=O)C5CC5)ncn4)cc3)cc2C(F)(F)F)CC1` [WS-3] displayed an AC50 cell viability of 0.0934 µM. The efficacy in the assay with HCT116 [2] was -73.9%.
Regarding `O=C(CCCCCCC(=O)N/N=C/c1ccc(N(c2ccccc2)c2ccccc2)cc1)NO` [WT-161], the AC50 cell viability in the assay with HCT116 [1] was found to be 2.09 µM. In the assay with HCT116 [2], the efficacy is -86.8%.
For `COC(=O)Nc1ccc(-c2nc(N3CCOCC3)c3cnn(C4CCN(C(=O)OC)CC4)c3n2)cc1` [WYE-354] the same measures were 1.32 µM and -56.3%.

The record behind these values is the supplement of paper PMC10290057.
